# Test results published in patent US8980833B2, “Tubulysine derivatives” (priority 2007, dated 2015).
# Like-named read-outs stand apart in the source and are kept apart here.
# Legend:
# Type in all cases: cell-based
# [1] = tested on: HT-29 (colon) cells; test: MTS cell survival assay, HT-29 (colon); details: 48 hours incubation, read-out: IC50 cell line HT-29
# Description: (§1) Seed 96-well plates at a concentration of 5000 cells/well in a volume of 100 μl with A2780 (ovarian), HT-29 (colon), MDA-MB-231 (breast), NCI-H1299 (non-small cell lung, MCF-7 (breast) cells or any other available cancer cell line. Incubate for 24 hours at 37° C.
# (§2) Prepare a stock solution of Tubulysin derivative by dissolving at 10 mg/ml in methanol. Prepare dilutions of 1 mg/ml in methanol and 17 μg/ml (20 μM) in cell culture medium, and make serial 10-fold dilutions down to 2 pM in cell culture medium.
# (§3) Add 100 μl of Tubulysin to triplicate wells for a final dose range of 1 pM to 10 μM. Reserve three wells for “untreated” cells and three wells of medium alone as a “blank”. Incubate plates at 37° C. for 48 hours.
# (§4) Prepare MTS assay reagent by diluting CellTiter 96 AQueous One Solution (Promega) 5-fold into PBS/glucose (4.5 g/L). Aspirate cell culture medium. Aliquot 100 μl of MTS reagent to each well. Incubate at 37° C. for 1-2 hours depending on the cell line.
# (§5) Shake the plates for 5 minutes and measure the absorbance at 485 nm using a plate reader (e.g. Tecan). Enter the raw data into an excel spreadsheet to obtain the % cell survival for each cell line. Graph dose (nM) vs. % cell survival and estimate IC50s from the graphs.
# (§6) Use a 4-parameter logistic fit to obtain IC50 values: y=(a−d)/(1+(x/c)^b)+d • where • x=dose • y=% cell survival • a=lower asymptote • b=slope • c=IC50 • d=upper asymptote
# (§7) Enter values for x and y. Estimate values for a, b, c, and d. Run the solver tool on the sum of squared errors cell. Minimize the sum of squared errors by varying parameters a through d. Obtain the IC50 (nM) from parameter c.
# [2] = tested on: A2780 (ovarian) cells; test: MTS cell survival assay, A2780 (ovarian); details: 48 hours incubation, read-out: IC50 cell line A2780
# Description: as §1, §2, §3, §4, §5, §6, §7
# [3] = tested on: MCF-7 (breast) cells; test: MTS cell survival assay, MCF-7 (breast); details: read-out: IC50 cell line MCF-7
# Description: as §1, §2, §3, §4, §5, §6, §7
# [4] = tested on: NCI-H1299 (non-small cell lung) cells; test: MTS cell survival assay, NCI-H1299 (non-small cell lung); details: Homo sapiens, 48 hours incubation, read-out: IC50 cell line NCI-H1299
# Description: as §1, §2, §3, §4
# Shake the plates for 5 minutes and measure the absorbance at 485 nm using a plate reader (e.g. Tecan). Enter the raw data into an excel spreadsheet to obtain the % cell survival for each cell line. Graph dose (nM) vs. % cell survival and estimate IC50s from the graphs. […]
# [5] = Homo sapiens, MCF7, 48 hours incubation
SMILES,IC50 ([1]; Homo sapiens),IC50 ([2]; Homo sapiens),"IC50 [3, 5]",also measured
CCCCCCN(C(=O)C(NC(=O)C1CCCCN1C)[C@@H](C)CC)[C@H](C[C@@H](OC(C)=O)c1nc(C(=O)N[C@@H](Cc2ccc(OC)cc2)C[C@H](C)C(=O)O)cs1)C(C)C (stereo partly shown),430 pM,–,–,–
CCCN(C(=O)C(NC(=O)C1CCCCN1C)[C@@H](C)CC)[C@H](CCc1nc(C(=O)N[C@H](CCC(=O)O)Cc2ccccc2)cs1)C(C)C (stereo partly shown),3100 pM,1100 pM,–,–
CC[C@H](C)C(NC(=O)C1CCCCN1C)C(=O)N(C)[C@H](C[C@@H](OC(C)=O)c1nc(C(=O)N[C@@H](Cc2ccc(-c3ccccc3)cc2)C[C@H](C)C(=O)O)cs1)C(C)C (stereo partly shown),2300 pM,1400 pM,–,–
CC[C@H](C)C(NC(=O)C1CCCN1C)C(=O)N(C)[C@H](C[C@@H](OC(C)=O)c1nc(C(=O)N[C@@H](Cc2ccc(F)cc2)C[C@H](C)C(=O)O)cs1)C(C)C (stereo partly shown),3100 pM,–,1100 pM,–
CCCN(C(=O)C(NC(=O)C1CCCCN1C)[C@@H](C)CC)[C@H](C[C@@H](OC(C)=O)c1nc(C(=O)N[C@@H](Cc2ccc(F)cc2)C[C@H](C)C(=O)O)cs1)C(C)C (stereo partly shown),480 pM,300 pM,400 pM,IC50 [4]: 520 pM
CCCN(C(=O)C(NC(=O)C1CCCCN1C)[C@@H](C)CC)[C@H](C[C@@H](OC(C)=O)c1nc(C(=O)N[C@H](CCC(=O)O)Cc2ccc(F)cc2)cs1)C(C)C (stereo partly shown),490 pM,300 pM,–,–
CC[C@H](C)C(NC(=O)C1CCCCN1C)C(=O)N(COCC(C)C)[C@H](C[C@@H](OC(C)=O)c1nc(C(=O)N[C@@H](Cc2ccc(F)cc2)C[C@H](C)C(=O)O)cs1)C(C)C (stereo partly shown),3500 pM,900 pM,1100 pM,–
CC[C@H](C)C(NC(=O)C1CCCCN1C)C(=O)N(C)[C@H](C[C@@H](OC(C)=O)c1nc(C(=O)N[C@@H](Cc2ccc(OC)cc2)C[C@H](C)C(=O)O)cs1)C(C)C (stereo partly shown),2000 pM,800 pM,600 pM,–
CC[C@H](C)C(NC(=O)C1CCCCN1C)C(=O)N(CC)[C@H](C[C@@H](O)c1nc(C(=O)N[C@H](CCN)Cc2ccc(F)cc2)cs1)C(C)C (stereo partly shown),23000 pM,–,15200 pM,–
CCCCCN(C(=O)C(NC(=O)C1CCCCN1C)[C@@H](C)CC)[C@H](C[C@@H](OC(C)=O)c1nc(C(=O)N[C@@H](Cc2ccc(F)cc2)C[C@H](C)C(=O)O)cs1)C(C)C (stereo partly shown),350 pM,–,600 pM,–
CC[C@H](C)C(NC(=O)C1CCCCN1C)C(=O)N(COC(=O)CC(C)C)[C@H](C[C@@H](OC(C)=O)c1nc(C(=O)N[C@@H](Cc2ccc(O)cc2)C[C@H](C)C(=O)O)cs1)C(C)C (stereo partly shown),–,–,–,IC50 [2]: 800 pM; IC50 [1]: 750 pM; IC50 ([3]; 48 hours incubation): 600 pM
CC[C@H](C)C(NC(=O)C1CCCN1C)C(=O)N(C)[C@H](C[C@@H](OC(C)=O)c1nc(C(=O)N[C@@H](Cc2ccc(N(C)C)cc2)C[C@H](C)C(=O)O)cs1)C(C)C (stereo partly shown),2100 pM,700 pM,–,–
CC[C@H](C)C(NC(=O)C1CCCCN1C)C(=O)N(C)[C@H](C[C@@H](OC(C)=O)c1nc(C(=O)N[C@@H](Cc2ccc(F)cc2)C[C@H](C)C(=O)O)cs1)C(C)C (stereo partly shown),3000 pM,800 pM,–,IC50 [4]: 1930 pM
CCCN(C(=O)C(NC(=O)C1CCCCN1C)[C@@H](C)CC)[C@H](C[C@@H](OC(C)=O)c1nc(C(=O)N[C@@H](Cc2ccc(-c3ccccc3)cc2)C[C@H](C)C(=O)O)cs1)C(C)C (stereo partly shown),280 pM,–,400 pM,–
CCCN(C(=O)C(NC(=O)C1CCCCN1C)[C@@H](C)CC)[C@H](CCc1nc(C(=O)N[C@H](CCCO)Cc2ccccc2)cs1)C(C)C (stereo partly shown),4300 pM,1600 pM,–,–
CC(=O)O[C@H](C[C@H](C(C)C)N(COC(=O)c1ccccc1)C(=O)C(NC(=O)C1CCCCN1C)C(C)C)c1nc(C(=O)N[C@H](CCC(=O)O)Cc2ccc(F)cc2)cs1 (stereo partly shown),450 pM,–,400 pM,–
